As usually defined, the IC50 is the concentration that inhibits the measured activity by half. Usually AC50 stands for the concentration giving half of the maximal activity seen. As a reminder, the EC50 is the concentration needed to bring the measured effect to its halfway point.

Assay [1] concerns the target G-protein coupled receptor 55 (Homo sapiens, UniProt Q9Y2T6). Briefly: GPR55 antagonists blocking LPI-driven arrestin recruitment, primary screen, imaging, U2OS, beta-arrestin-GFP, LPI agonist (AID 2013).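 Also: antagonist potency measured as reduced agonist-driven arrestin aggregation.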 The assay is classed as functional.
Assay [2] concerns the target T1, Replicative DNA helicase DnaB (Mycobacterium tuberculosis, UniProt P9WMR3).
T1 sequence (P9WMR3 whole entry): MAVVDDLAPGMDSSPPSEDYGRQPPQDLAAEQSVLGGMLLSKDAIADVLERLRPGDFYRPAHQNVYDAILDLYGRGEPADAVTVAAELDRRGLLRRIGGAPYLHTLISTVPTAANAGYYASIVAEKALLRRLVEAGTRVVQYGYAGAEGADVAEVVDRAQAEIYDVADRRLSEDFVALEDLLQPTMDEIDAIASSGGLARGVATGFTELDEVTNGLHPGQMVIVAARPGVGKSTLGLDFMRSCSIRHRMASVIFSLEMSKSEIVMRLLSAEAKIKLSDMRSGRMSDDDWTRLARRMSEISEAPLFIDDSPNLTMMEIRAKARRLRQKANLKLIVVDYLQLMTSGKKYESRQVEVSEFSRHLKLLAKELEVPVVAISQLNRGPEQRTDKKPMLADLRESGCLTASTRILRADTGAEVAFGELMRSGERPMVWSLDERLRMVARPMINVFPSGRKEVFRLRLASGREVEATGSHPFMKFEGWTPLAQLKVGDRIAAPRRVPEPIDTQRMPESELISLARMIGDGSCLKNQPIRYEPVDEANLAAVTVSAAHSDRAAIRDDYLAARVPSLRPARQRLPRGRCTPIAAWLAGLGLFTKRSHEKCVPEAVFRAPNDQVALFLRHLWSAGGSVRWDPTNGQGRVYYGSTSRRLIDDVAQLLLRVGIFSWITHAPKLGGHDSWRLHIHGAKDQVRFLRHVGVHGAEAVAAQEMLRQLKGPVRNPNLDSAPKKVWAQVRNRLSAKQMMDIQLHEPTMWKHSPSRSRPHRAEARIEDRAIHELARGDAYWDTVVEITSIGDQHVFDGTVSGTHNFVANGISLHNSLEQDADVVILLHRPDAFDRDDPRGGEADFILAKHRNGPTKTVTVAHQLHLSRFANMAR
Briefly: DnaB intein splicing inhibitors, dose response, biochemical, cell-free fluorescence (AID 449749). The assay is classed as functional.

The target in the next assay is T2, Protein RecA (Mycobacterium tuberculosis, UniProt P9WHJ3).
T2 sequence (P9WHJ3 whole entry): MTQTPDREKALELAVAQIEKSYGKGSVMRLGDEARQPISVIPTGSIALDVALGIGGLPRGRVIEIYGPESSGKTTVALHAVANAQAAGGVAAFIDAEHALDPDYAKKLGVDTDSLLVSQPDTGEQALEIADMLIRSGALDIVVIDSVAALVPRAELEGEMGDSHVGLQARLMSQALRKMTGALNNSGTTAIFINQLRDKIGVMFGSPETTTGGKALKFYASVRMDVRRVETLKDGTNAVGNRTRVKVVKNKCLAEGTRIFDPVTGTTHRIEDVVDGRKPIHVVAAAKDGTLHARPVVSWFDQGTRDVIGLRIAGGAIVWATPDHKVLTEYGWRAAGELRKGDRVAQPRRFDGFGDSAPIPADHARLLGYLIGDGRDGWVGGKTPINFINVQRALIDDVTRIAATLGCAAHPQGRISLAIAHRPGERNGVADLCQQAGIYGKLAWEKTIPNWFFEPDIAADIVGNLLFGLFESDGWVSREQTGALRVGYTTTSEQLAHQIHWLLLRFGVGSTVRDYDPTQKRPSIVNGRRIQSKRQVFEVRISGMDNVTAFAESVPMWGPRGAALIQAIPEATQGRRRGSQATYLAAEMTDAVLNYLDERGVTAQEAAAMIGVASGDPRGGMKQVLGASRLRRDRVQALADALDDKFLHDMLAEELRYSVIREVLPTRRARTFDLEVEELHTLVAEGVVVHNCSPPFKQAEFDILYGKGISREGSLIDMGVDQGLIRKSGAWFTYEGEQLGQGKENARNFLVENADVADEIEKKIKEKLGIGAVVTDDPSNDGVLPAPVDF
Briefly: Fluorescence Cell-Free Homogeneous Dose Retest to Identify Inhibitors of RecA-Intein Splicing Activity. [Related pubchem assays (depositor defined):AID2097, AID2223, AID489010, AID492950]. It counts as functional.

In assay [3] the target is T3, Fatty acid synthase (Homo sapiens, UniProt P49327). Briefly: FAS thioesterase domain inhibitors, dose response, biochemical, endpoint fluorescence intensity, uHTS hits (AID 624327).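 Also: fluorescence from hydrolysis of an O-methyl fluorescein acyl ester substrate by the enzyme.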 It counts as functional.
T3 sequence (P49327 whole entry, the tested form may be a part): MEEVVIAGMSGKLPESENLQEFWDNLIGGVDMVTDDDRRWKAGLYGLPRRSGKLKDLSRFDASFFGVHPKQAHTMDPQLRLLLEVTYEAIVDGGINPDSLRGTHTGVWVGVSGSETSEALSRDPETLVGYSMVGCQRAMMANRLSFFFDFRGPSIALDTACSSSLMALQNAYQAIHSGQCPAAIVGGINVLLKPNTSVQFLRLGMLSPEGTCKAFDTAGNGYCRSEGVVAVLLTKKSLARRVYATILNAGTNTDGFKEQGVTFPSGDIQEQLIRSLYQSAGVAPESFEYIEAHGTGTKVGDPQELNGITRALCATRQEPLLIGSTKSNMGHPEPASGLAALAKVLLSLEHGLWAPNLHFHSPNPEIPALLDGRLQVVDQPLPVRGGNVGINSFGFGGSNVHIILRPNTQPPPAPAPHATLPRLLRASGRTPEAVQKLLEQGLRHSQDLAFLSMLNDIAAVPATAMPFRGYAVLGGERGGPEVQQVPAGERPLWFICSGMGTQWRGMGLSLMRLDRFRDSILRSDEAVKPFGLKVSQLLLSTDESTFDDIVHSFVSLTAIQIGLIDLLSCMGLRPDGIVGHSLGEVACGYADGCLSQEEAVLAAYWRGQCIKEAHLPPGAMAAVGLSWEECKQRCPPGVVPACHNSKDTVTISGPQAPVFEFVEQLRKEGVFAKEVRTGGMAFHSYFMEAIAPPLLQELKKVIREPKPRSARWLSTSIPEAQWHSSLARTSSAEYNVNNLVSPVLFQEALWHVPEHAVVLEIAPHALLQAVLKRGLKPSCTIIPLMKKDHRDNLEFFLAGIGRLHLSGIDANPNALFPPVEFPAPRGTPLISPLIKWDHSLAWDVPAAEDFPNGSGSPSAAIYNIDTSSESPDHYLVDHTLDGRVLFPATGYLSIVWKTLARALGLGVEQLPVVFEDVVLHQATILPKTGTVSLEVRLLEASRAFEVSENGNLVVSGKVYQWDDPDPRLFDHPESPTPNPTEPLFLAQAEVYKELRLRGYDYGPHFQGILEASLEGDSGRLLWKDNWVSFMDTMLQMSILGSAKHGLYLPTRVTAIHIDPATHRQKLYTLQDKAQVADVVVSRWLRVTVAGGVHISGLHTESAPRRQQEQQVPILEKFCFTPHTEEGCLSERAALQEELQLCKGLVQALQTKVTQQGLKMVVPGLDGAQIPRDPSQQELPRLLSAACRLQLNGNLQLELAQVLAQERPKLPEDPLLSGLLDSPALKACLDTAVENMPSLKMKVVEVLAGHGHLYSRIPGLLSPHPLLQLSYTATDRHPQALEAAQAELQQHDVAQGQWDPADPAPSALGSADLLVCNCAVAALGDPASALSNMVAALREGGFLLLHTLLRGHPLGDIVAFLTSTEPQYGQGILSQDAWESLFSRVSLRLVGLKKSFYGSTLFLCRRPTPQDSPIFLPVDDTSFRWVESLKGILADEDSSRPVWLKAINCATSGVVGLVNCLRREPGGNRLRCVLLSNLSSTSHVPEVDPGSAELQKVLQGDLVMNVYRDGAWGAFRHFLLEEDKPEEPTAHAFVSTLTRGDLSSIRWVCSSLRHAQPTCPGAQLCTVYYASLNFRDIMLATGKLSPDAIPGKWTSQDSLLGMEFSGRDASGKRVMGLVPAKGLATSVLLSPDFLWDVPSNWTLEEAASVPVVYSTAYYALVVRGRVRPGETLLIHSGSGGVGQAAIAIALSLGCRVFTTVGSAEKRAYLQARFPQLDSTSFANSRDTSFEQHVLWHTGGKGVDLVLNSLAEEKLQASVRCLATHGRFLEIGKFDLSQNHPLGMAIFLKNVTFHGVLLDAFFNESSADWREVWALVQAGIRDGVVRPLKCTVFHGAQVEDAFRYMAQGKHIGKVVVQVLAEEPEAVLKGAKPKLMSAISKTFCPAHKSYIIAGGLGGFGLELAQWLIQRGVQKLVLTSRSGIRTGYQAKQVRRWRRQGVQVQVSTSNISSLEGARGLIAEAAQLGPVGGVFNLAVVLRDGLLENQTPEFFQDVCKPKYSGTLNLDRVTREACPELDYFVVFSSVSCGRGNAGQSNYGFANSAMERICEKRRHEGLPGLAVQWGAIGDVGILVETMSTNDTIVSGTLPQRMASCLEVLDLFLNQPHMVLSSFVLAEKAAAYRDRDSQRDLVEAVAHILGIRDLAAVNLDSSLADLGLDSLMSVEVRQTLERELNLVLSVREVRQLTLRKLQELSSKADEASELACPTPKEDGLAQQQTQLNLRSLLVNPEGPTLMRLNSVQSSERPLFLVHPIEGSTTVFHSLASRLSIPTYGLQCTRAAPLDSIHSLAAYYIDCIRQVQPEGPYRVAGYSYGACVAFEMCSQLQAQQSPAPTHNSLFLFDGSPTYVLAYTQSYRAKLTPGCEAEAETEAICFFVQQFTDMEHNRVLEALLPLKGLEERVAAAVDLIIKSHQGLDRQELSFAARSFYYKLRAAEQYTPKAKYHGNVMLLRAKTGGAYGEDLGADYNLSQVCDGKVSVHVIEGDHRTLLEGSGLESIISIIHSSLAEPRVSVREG
The target in assay [4] is T3, Fatty acid synthase. Briefly: FAS thioesterase domain inhibitors, dose response, biochemical, kinetic fluorescence intensity (AID 624326).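 Also: rate of fluorescence rise from hydrolysis of a fluorogenic O-methyl fluorescein ester substrate.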 It counts as functional.
In another assay the target is Beta-galactosidase (Escherichia coli, UniProt Q8VNN2). Kind of assay: PubChem AID 485352. The assay is classed as functional.
Chain of Beta-galactosidase (Q8VNN2 whole entry): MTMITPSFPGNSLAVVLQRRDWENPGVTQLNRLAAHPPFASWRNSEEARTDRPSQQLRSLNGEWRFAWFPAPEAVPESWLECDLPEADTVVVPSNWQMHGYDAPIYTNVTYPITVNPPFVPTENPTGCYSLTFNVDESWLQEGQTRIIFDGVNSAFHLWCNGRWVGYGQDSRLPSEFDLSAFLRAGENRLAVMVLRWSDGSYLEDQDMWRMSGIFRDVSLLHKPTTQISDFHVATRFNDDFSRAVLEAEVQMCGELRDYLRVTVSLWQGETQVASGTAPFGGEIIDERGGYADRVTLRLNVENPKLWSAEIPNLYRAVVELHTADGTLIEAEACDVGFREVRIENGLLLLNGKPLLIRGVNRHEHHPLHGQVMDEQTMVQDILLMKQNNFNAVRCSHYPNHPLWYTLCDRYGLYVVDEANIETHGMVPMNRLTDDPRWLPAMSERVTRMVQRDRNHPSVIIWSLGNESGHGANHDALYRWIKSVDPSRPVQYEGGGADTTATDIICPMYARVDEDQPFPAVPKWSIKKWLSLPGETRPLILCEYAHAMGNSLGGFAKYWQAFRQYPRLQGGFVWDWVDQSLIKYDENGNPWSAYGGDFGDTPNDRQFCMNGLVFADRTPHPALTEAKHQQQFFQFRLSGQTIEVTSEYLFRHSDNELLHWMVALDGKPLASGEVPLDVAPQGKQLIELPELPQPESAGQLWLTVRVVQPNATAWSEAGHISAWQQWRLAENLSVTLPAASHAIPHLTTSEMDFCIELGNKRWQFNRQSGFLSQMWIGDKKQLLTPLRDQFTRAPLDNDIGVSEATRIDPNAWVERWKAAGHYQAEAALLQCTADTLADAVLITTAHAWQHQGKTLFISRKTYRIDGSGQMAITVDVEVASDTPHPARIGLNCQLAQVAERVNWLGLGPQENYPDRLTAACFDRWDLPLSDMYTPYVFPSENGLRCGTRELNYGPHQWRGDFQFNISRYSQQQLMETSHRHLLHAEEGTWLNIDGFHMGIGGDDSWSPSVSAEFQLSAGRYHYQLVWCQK
The target of assay [5] is T4, Type-1 angiotensin II receptor (Homo sapiens, UniProt P30556).
T4 sequence (P30556 whole entry): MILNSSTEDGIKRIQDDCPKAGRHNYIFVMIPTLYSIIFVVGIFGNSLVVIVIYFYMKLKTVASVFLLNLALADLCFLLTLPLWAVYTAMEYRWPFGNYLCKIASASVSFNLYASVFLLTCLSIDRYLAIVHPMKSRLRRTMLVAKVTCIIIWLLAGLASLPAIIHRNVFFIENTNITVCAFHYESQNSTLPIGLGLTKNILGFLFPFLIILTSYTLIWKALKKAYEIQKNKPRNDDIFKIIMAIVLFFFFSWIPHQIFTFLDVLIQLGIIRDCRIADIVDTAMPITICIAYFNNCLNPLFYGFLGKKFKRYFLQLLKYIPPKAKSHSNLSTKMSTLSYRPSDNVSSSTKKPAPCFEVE
Briefly: AT1 receptor antagonists, dose response, selectivity assay for APJ receptor antagonist project, cell-based, uHTS hits (AID 463214).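 Also: antagonist potency against angiotensin II stimulated AT1 response.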 It counts as functional.

The next assay deals with T5, CAAX prenyl protease 2 (Saccharomyces cerevisiae S288c, UniProt Q03530).
T5 sequence (Q03530 whole entry): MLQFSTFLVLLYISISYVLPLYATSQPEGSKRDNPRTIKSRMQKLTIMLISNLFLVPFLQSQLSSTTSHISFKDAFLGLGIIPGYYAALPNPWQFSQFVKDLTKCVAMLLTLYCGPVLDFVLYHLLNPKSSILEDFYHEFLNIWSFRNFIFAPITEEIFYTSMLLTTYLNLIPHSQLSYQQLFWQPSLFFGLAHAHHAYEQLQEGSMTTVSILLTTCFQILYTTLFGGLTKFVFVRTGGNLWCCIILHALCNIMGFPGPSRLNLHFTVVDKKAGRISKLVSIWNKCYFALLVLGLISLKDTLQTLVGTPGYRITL
The assay is classed as biochemical.

Assay [6] has as its target T6, Alkaline phosphatase, tissue-nonspecific isozyme (Homo sapiens, UniProt P05186).
T6 sequence (P05186 whole entry): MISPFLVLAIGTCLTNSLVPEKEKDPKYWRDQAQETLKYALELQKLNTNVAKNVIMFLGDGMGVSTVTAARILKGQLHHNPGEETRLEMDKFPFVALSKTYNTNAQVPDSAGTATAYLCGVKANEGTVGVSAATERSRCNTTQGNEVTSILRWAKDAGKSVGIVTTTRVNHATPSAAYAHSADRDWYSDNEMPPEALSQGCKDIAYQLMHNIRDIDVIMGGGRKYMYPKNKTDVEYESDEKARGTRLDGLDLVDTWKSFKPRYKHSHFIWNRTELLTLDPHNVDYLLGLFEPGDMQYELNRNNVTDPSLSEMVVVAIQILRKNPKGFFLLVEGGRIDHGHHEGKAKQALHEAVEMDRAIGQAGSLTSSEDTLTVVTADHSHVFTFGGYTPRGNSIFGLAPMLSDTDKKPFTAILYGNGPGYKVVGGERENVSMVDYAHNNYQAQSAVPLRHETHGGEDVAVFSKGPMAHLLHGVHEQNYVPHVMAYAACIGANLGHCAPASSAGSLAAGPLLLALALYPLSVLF
Briefly: human TNAP enzyme inhibitors, SAR follow-up, biochemical, luminescent, dose response (AID 1056).

Active and inactive are the calls of the source.

Chain of G-protein coupled receptor 55 (Q9Y2T6 whole entry): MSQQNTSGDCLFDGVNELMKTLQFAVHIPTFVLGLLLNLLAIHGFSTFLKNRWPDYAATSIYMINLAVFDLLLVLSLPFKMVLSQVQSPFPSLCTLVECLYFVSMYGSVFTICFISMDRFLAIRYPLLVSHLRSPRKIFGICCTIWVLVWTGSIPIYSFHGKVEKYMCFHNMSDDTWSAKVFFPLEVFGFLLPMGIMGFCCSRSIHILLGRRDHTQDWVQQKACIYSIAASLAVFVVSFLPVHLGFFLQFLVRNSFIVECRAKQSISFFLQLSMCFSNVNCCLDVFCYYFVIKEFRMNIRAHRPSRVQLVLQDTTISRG

With `O=C(Nc1ccc(Cl)cc1)C(Cl)C(=O)c1ccccc1` (stereo unspecified), the IC50 in assay [1] is 1.07 µM (active); on Fatty acid synthase [3], 4.3 µM (active); at Fatty acid synthase [4] it was 4.67 µM (active). Besides, the concentration at half-maximal activity (AC50) in assay [2] is 5.89 µM (active). Further, the EC50 on Protein RecA was 30.3 µM (active).

For `Cc1ccc(C(=O)N(c2ccccc2)C2CC(C)N(C(=O)c3ccco3)c3ccccc32)cc1` (stereo unspecified), in assay [1], the IC50 was 2.41 µM (active).

Turning to `Cc1ccc(-c2c(C(=O)N/N=C/c3cccc(Cl)c3)nnn2-c2nonc2N)cc1`, the EC50 on Beta-galactosidase was > 40 µM (inactive). Further, the half-inhibitory concentration (IC50) in [5] was > 40 µM (not active). Besides, the half-maximal activity concentration (AC50) at CAAX prenyl protease 2 was 1.44 µM (active).

Consider `O=C(O)c1[nH]nc2c1COc1ccccc1-2`, for which the IC50 in assay [6] is 1.31 µM (active).

As for `COc1ccccc1NC(=O)Cc1nnc(SCC(=O)Nc2nccs2)n1C`, the AC50 on CAAX prenyl protease 2 is 21.1 µM (active).

Values taken from ChEMBL document CHEMBL1201862, “PubChem BioAssay data set” (2004).
